Here are results for 17 compounds from patent US6667313B1, “8-substituted-6-triflouromethyl-9-pyrido [3,2-G] quinoline compounds as androgen receptor modulators” (Ligand Pharmaceuticals Inc., priority 1999, dated 2003).

Experiment [1] deals with T1, human AR (Homo sapiens, UniProt P10275).
T1 sequence (P10275 1-920): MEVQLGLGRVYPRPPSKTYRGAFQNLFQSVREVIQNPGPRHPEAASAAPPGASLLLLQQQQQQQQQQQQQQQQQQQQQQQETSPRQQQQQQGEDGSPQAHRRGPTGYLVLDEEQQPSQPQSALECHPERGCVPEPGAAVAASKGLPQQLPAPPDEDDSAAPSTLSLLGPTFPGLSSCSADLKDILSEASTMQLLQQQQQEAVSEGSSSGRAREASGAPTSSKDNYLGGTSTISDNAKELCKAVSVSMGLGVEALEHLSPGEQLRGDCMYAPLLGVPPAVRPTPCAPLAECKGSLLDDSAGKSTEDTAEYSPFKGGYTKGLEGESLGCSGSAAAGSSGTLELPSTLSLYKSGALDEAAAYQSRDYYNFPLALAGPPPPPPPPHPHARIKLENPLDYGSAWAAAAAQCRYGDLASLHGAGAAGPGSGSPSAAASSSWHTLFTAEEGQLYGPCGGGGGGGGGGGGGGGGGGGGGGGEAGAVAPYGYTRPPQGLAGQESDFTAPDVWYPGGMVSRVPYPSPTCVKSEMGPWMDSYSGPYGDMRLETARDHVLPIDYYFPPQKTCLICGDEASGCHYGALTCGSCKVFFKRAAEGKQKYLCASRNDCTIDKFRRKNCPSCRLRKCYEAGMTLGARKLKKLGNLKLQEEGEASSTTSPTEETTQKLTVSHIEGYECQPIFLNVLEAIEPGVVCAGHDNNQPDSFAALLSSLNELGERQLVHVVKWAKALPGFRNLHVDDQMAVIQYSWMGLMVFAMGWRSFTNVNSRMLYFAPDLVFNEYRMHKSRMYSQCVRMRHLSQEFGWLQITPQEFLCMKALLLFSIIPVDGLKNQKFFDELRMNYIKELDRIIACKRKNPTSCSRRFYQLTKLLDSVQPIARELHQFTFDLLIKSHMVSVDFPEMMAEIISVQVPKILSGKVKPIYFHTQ
The experiment is described as follows: Co-transfection assay, AR agonist, CV-1 cells. To be noted: for AR Agonist CV-1 Cells Efficacy (%): percent maximal response relative to reference agonist DHT. It counts as cell-based. The source says: (§1) The reporter plasmid, MTV-LUC, contains the cDNA for firefly luciferase (LUC) under control of themouse mammary tumor virus (MTV) long terminal repeat, a conditional promoter containing an androgen response element. See e.g., Berger et al. supra. In addition, pRS-β-Gal, coding for constitutive expression of E. coli β-galactosidase (β-Gal), was included as an internal control for evaluation of transfection efficiency and compound toxicity.
(§2) Three to four replicates were used for each sample.
(§3) After 40 hours, the cells were washed with PBS, lysed with a Triton X-100-based buffer and assayed for LUC and β-Gal activities using a luminometer or spectrophotometer, respectively. For each replicate, the normalized response (NR) was calculated as:
(§4) where β-Gal rate=β-Ga·1×10^−5/β-Gal incubation time.

Experiment [2] has as its target T1, human AR. Briefly: Co-transfection assay, AR antagonist, CV-1 cells (in presence of DHT). To be noted: for AR Antagonist CV-1 Cells Efficacy (%): percent maximal inhibition, DHT at EC50. The format is cell-based.
From the text: as §1, §2, §3, §4

Experiment [3] addresses T1, human AR. The experiment is described as follows: AR whole cell competitive binding assay (3H-DHT), COS-1 cells. On the procedure: AR Binding: For the whole cell binding assay, COS-1 cells in 96-well microtiter plates containing DMEM-10% FBS were transfected as described above with the following plasmid DNA: pRShAR (2 ng/well), pRS-β-Gal (50 ng/well) and pGEM (48 ng/well). Six hours after transfection, media was removed, the cells were washed with PBS and fresh media was added. The next day, the media was changed to DMEM-serum free to remove any endogenous ligand that might be complexed with the receptor in the cells.
Three replicates were used for each sample. […] The remaining media was removed, the cells were washed three times with PBS to remove unbound ligand, and cells were lysed with a Triton X-100-based buffer.
For the saturation analyses, the difference between the total binding and the nonspecific binding, normalized by the β-Gal rate, was defined as specific binding.
After correcting for non-specific binding, IC50 values were determined. […] The IC50 value was determined graphically from a log-logit plot of the data. The Ki values were determined by application of the Cheng-Prusoff equivuation to the IC50 values, the labeled ligand concentration and the Kd of the labeled ligand.

Like-named read-outs stand apart in the source and are kept apart here.

Regarding `CCC1CCNc2cc3nc(Cl)cc(C(F)(F)F)c3cc21` (racemic) [Compound 108, (R/S)-8-Chloro-4-ethyl-1,2,3,4-tetrahydro-6-trifluoromethyl-9-pyrido[3,2-g]guinoline], at human AR [1], the EC50 was 0.073 ± 0.012 µM and the “AR Agonist CV-1 Cells Efficacy (%)” value is 36 ± 5%. Further, on human AR [2], the IC50 came to 0.05 ± 0.027 µM and the “AR Antagonist CV-1 Cells Efficacy (%)” value amounted to 28 ± 8%. In addition, affinity on human AR [3] was put at a Ki of 0.081 ± 0.013 µM.
On the same counts, the results for `CCC1CCNc2cc3nc(Cl)c(F)c(C(F)(F)F)c3cc21` (racemic) [Compound 109, (R/S)-8-Chloro-4-ethyl-7-fluoro-1,2,3,4-tetrahydro-6-trifluoromethyl-9-pyrido[3,2-g]guinoline] are 0.089 ± 0.026 µM, 35 ± 12%, 0.039 ± 0.023 µM, 51 ± 9% and 0.119 ± 0.065 µM.
Regarding `CCC1CCNc2cc3nc(F)cc(C(F)(F)F)c3cc21` (racemic) [Compound 116, (R/S)-4-Ethyl-8-fluoro-1,2,3,4-tetrahydro-6-trifluoromethyl-9-pyrido[3,2-g]quinoline], on human AR [1], the response was half-maximal at 0.037 ± 0.009 µM (EC50) and the “AR Agonist CV-1 Cells Efficacy (%)” value is reported as 60 ± 4%. In addition, at human AR [2], the “AR Antagonist CV-1 Cells Efficacy (%)” value is listed as 0%. Besides, affinity on human AR [3] was put at a Ki of 0.005 µM.
On the same counts, the results for `CCC1CCNc2cc3nc(Br)cc(C(F)(F)F)c3cc21` (racemic) [Compound 121, (R/S)-8-Bromo-4-ethyl-1,2,3,4-tetrahydro-6-trifluoromethyl-9-pyrido[3,2-g]quinoline] are 0.022 ± 0.014 µM, 53 ± 15%, 8 ± 12% and 0.055 µM.
`CCC1CCNc2cc3nccc(C(F)(F)F)c3cc21` (racemic) [Compound 125, (R/S)-4-Ethyl-1,2,3,4-tetrahydro-6-trifluoromethyl-9-pyrido[3,2-g]quinoline]: the “AR Agonist CV-1 Cells Efficacy (%)” value on human AR [1] is recorded as 9 ± 7%. Moreover, at human AR [2], the IC50 was found to be 0.056 ± 0.017 µM and the “AR Antagonist CV-1 Cells Efficacy (%)” value turned out to be 93 ± 1%. This compound had a Ki at human AR [3] of 0.093 µM.
For `CCC1CCNc2cc3nc(C#N)cc(C(F)(F)F)c3cc21` (racemic) [Compound 129, (R/S)-8-Cyano-4-ethyl-1,2,3,4-tetrahydro-6-trifluoromethyl-9-pyrido[3,2-g]quinoline], on human AR [2], the IC50 came to 0.015 ± 0.005 µM and the “AR Antagonist CV-1 Cells Efficacy (%)” value came to 56 ± 25%. Affinity on human AR [3] was put at a Ki of 0.021 µM.
For the compound `CCC1CCN(C)c2cc3nc(C#N)cc(C(F)(F)F)c3cc21` (racemic) [Compound 130, (R/S)-8-Cyano-4-ethyl-1,2,3,4-tetrahydro-1-methyl-6-trifluoromethyl-9-pyrido[3,2-g]quinoline], at human AR [1], the “AR Agonist CV-1 Cells Efficacy (%)” value came out at 2%. Also, at human AR [2], the IC50 was determined as 0.782 ± 0.546 µM and the “AR Antagonist CV-1 Cells Efficacy (%)” value is recorded as 89 ± 1%. This compound also displayed a Ki at human AR [3] of 0.787 µM.
On the same counts, the results for `CC1(C)CCc2cc3c(cc2N1)N(C(=O)c1ccccc1)C(C#N)C=C3C(F)(F)F` (racemic) [Compound 131, (R/S)-9-Benzoyl-8-cyano-1,2,3,4,8,9-hexahydro-2,2-dimethyl-6-trifluoromethyl-9-pyrido[3,2-g]quinoline] are 0%, 0.063 µM, 91% and greater than 1 µM.
For `Cc1ccc(C(=O)N2c3cc4c(cc3C(C(F)(F)F)=CC2C#N)CCC(C)(C)N4)cc1` (racemic) [Compound 132, (R/S)-8-Cyano-1,2,3,4,8,9-hexahydro-2,2-dimethyl-9-p-toluoyl-6-trifluoromethyl-9-pyrido[3,2-g]quinoline], the “AR Antagonist CV-1 Cells Efficacy (%)” value on human AR [2] is reported as 89%. In addition, the IC50 at human AR [2] (read-out: AR Antagonist CV-1 Cells Potency) stood at 0.147 µM. In addition, the Ki at human AR [3] (COS-1 cells, 1 nM 3H-DHT, Cheng-Prusoff, read-out: AR Binding KI) amounted to 0.863 µM.
For `C[S+]([O-])c1nc2cc3c(cc2c(C(F)(F)F)c1F)CCC(C)(C)N3` (racemic) [Compound 137, (R/S)-7-Fluoro-1,2,3,4-tetrahydro-2,2-dimethyl-6-trifluoromethyl-8-methylsulfinyl-9-pyrido[3,2-g]quinoline], the “AR Agonist CV-1 Cells Efficacy (%)” value on human AR [1] stood at 10%. At human AR [2], the IC50 was 1.34 µM and the “AR Antagonist CV-1 Cells Efficacy (%)” value came to 84%. Further, on human AR [3], the Ki is greater than 1 µM.
With `CCC1CCNc2cc3nc(SC)cc(C(F)(F)F)c3cc21` (racemic) [Compound 142, (R/S)-4-Ethyl-1,2,3,4-tetrahydro-8-methylthio-6-trifluoromethyl-9-pyrido[3,2-g]quinoline], at human AR [1], the EC50 worked out at 0.221 ± 0.108 µM and the “AR Agonist CV-1 Cells Efficacy (%)” value was found to be 30 ± 12%. Besides, on human AR [2], the IC50 was determined as 0.131 ± 0.064 µM and the “AR Antagonist CV-1 Cells Efficacy (%)” value was found to be 60 ± 7%. At human AR [3], this compound gave a Ki of 0.307 µM.
On the same counts, the results for `CCC1CCNc2cc3nc([S+](C)[O-])cc(C(F)(F)F)c3cc21` (racemic) [Compound 143, (R/S)-4-Ethyl-1,2,3,4-tetrahydro-8-methylsulfinyl-6-trifluoromethyl-9-pyrido[3.2-g]guinoline] are 0.033 ± 0.003 µM, 37 ± 9%, 4.69 µM, 59% and 0.034 µM.
For `CCC1CCNc2cc3nc(C(F)(F)F)cc(C(F)(F)F)c3cc21` (racemic) [Compound 149, (R/S)-4-Ethyl-1,2,3,4-tetrahydro-6,8-di(trifluoromethyl)-9-pyrido[3,2-g]quinoline], at human AR [2], the IC50 was 0.117 ± 0.031 µM. This compound also gave a Ki on human AR [3] of 0.301 µM.
As for `Cc1c2c(cc3c(C(F)(F)F)c(F)c(Cl)nc13)C(C)CC(C)(C)N2` (stereo not drawn) [Compound 106, 8-Chloro-7-fluoro-1,2,3,4-tetrahydro-2,2,4,10-tetramethyl-6-trifluoro-methyl-9-pyrido[3,2-g]quinoline], the “AR Agonist CV-1 Cells Efficacy (%)” value on human AR [1] is recorded as 4 ± 2%. Also, on human AR [2], the IC50 amounted to 0.55 ± 0.015 µM and the “AR Antagonist CV-1 Cells Efficacy (%)” value is 77 ± 6%. Besides, at human AR [3], the Ki was greater than 1 µM.
Turning to `CC1(C)CCc2cc3c(C(F)(F)F)c(F)c(Cl)nc3cc2N1` [Compound 107, 8-Chloro-7-fluoro-1,2,3,4-tetrahydro-2,2-dimethyl-6-trifluoromethyl-9-pyrido[3,2-g]quinoline], on human AR [1], the EC50 was 1.03 µM and the “AR Agonist CV-1 Cells Efficacy (%)” value amounted to 29%. Also, at human AR [2], the IC50 came out at 0.017 ± 0.003 µM and the “AR Antagonist CV-1 Cells Efficacy (%)” value is 61 ± 8%. The same compound had a Ki at human AR [3] of 0.103 µM.
Take `CC1(C)CCc2cc3c(C(F)(F)F)c(F)c(F)nc3cc2N1` [Compound 113, 7,8-Difluoro-1,2,3,4-tetrahydro-2,2-dimethyl-6-trifluoromethyl-9-pyrido[3,2-g]quinoline]: on human AR [1], the “AR Agonist CV-1 Cells Efficacy (%)” value turned out to be 12%. At human AR [2], the IC50 was found to be 0.5 µM and the “AR Antagonist CV-1 Cells Efficacy (%)” value is given as 37%. Further, the affinity on human AR [3], expressed as Ki, was 0.152 µM.
On the same counts, the results for `Cc1c2c(cc3c(C(F)(F)F)c(F)c(F)nc13)C(C)CC(C)(C)N2` (stereo not drawn) [Compound 115, 7,8-Difluoro-1,2,3,4-tetrahydro-2,2,4,10-tetramethyl-6-trifluoromethyl-9-pyrido[3,2-g]quinoline] are 0%, 1.14 µM, 26% and greater than 1 µM.
